Assay results reported in article PMC3170320, “Minimal Antizyme Peptide Fully Functioning in the Binding and Inhibition of Ornithine Decarboxylase and Antizyme Inhibitor” (PLoS ONE, 2011).
“Also recorded” adds a separate entry of the source.

Experiments:
human ODC [1] = assay: ODC enzyme activity inhibition by AZ peptides (without AZI); format: biochemical; conditions: for IC50 (AZ peptide)/IC50 (AZ_WT): ratio to AZ_WT; for IC50: ODC fixed at 20 µg/mL (0.19 µM), CO2-L3K coupled assay, 405 nm, 37°C, 30 mM Tris-HCl pH 7.8, 10 mM ornithine, 0.2 mM PLP, fit of inhibition curves; for ODC inhibition ability (in words): relative ODC activity, Figure 2
Experimental: Figure 2 Relative ODC enzyme activity in the presence of AZ peptides. The activity of ODC was inhibited by various concentrations of AZ peptides. ODC concentrations were fixed at 20 µg/mL (0.19 µM). The IC50 values of AZ peptides shown in Table 1 were derived from fitting these inhibition curves. The molar ratio refers to AZ peptide versus ODC monomer.
(§1) The ODC enzyme activity was determined using a CO2-L3K assay kit (DCL, Charlottetown, Canada) at 37°C. The continuous measurement of ODC enzyme activity was coupled to the carboxylation of PEP to oxaloacetate and the oxidation of oxaloacetate to malate, as previously reported. The reaction mixture contains 30 mM Tris-HCl at pH 7.8, 10 mM ornithine, 0.2 mM […] and 0.4 ml of the CO2-L3K assay kit solution, which contains 12.5 mM PEP, >0.4 U/ml phosphoenolpyruvate carboxylase (microbial), >4.1 U/ml malate dehydrogenase (mammalian) and 0.6 mM NADH analog in a final volume of 0.5 ml.
For the AZ inhibition experiment, the ODC enzyme (0.19 µM) and various amounts of AZ were added to the reaction mixture. The reaction was started after the ODC was added, and the absorbance decrease at 405 nm was continuously traced using a Perkin-Elmer Lamba-25 spectrophotometer. In this coupled reaction, the production of 1 mol of CO2 was concomitant with the oxidation of 1 mol of NADH analog. An extinction coefficient of 2410 M ^−1 was used for the NADH analog in the calculations.
(§2) To evaluate the inhibitory effect of AZ, the inhibited ODC enzyme activity versus [AZ] was fitted with the following equation to estimate the IC50 value: [drawing 1] where A and B are the minimum and maximum ODC enzyme activity, respectively, and the Hill slope gives the largest slope of the curve. The IC50 value represents the concentration of AZ required for 50% inhibition of ODC enzyme activity. All of the calculations were done using the SigmaPlot 10.0 software program (Jandel, San Rafael, CA).

[2] = target: human ODC (equilibrated with equimolar AZI); assay: ODC enzyme activity inhibition by AZ peptides in the presence of AZI; format: biochemical; conditions: for IC50 (with AZI)/IC50 (without AZI): ratio with/without equimolar AZI
Experimental: AZ has a greater affinity for AZI than ODC, such that the formation of an AZ-AZI heterodimer will release the ODC monomer from an AZ-ODC complex and rapidly restore ODC enzyme activity. Here, we examined the inhibition of ODC enzyme activity by AZ peptides in the presence of AZI. The ODC enzyme was first pre-incubated with AZI, keeping the molar ratio of AZI monomer/ODC monomer at unity. […] Table 1 illustrates the IC50 values of the AZ peptides in the presence of AZI, showing that all of the IC50 values for the AZ peptides with AZI were larger than the values without AZI.
Figure 4 Relative ODC enzyme activities in the presence of AZ and AZI. ODC enzymes equilibrated with equimolar AZI were inhibited by various concentrations of AZ peptides. The concentrations of AZI and ODC were fixed at 18.9 µg/mL and 20 µg/mL, respectively (the ratio of AZI monomer versus ODC monomer was fixed at 1). Panels A–H show the inhibition curves of ODC for each AZ peptide in the absence (closed circles) and in the presence (open circles) of AZI.
as §1, §2

human ODC [3] = assay: AZ peptide-ODC complex size distribution by analytical ultracentrifugation; format: binding; conditions: for K d,AZ-ODC fold higher than that of AZ_WT: ratio to AZ_WT
Experimental: AZ binds ODC, dissociates the ODC dimer and then inactivates the enzyme, [20]. […] In order to determine the differential binding affinity of these AZ peptides toward ODC, the size distributions of ODC with different concentrations of AZ peptides were analyzed. All sedimentation data were globally fitted with the AB hetero-association model in the SEDPHAT program to obtain the dissociation constant (K d) between ODC and AZ (Figure 3 and Table 2).
Figure 3 Continuous sedimentation coefficient distribution of human ODC in the presence of AZ peptide. The concentration of ODC was fixed at 0.3 mg/mL with concentrations of AZ ranging from 0.015 to 0.2 mg/mL (the molar ratio of AZ/ODC ranged from 0.12 to 2) in a buffer of 30 mM Tris-HCl (pH 7.4) and 25 mM NaCl at 20°C. The sedimentation velocity data were globally fitted with the SEDTHAT program to obtain K d values for the AZ peptide-ODC complex (Table 2).
A Beckman Optima XL-A analytical ultracentrifuge was used for sedimentation velocity experiments. Reference and sample sectors in the centerpiece were filled with buffer (400 µl) and sample protein (0.3 mg/mL, 380 µl), respectively, and then the cell was built up in an An-50 Ti rotor. Sedimentation velocity experiments were performed at 20°C with a rotor speed of 42,000 rpm. The data were traced by absorbance at 280 nm in continuous mode, with a time interval of 420 s and a step size of 0.002 cm. A total of 20–30 scans at different time points were collected and fitted to a continuous size distribution model using the program SEDFIT [54]–[55]. All size distributions were calculated at 0.1 to 20 S with a confidence level of p = 0.95 and a resolution N of 200.
In order to determine the dissociation constants (K d) of the AZ peptide-ODC and AZ peptide-AZI complexes, sedimentation velocity experiments were performed at different concentrations of AZ or AZ peptide with a constant concentration of human ODC or AZI. The K d values of the AZ peptide-ODC and AZ peptide-AZI complexes were calculated by a global fitting of all sedimentation data in the AB hetero-association model in the SEDPHAT program [56]–[57]. The partial specific volumes of the proteins, the solvent densities, and the viscosity were calculated by the SEDNTERP program.

| Substance | IC50 (AZ peptide)/IC50 (AZ_WT) (human ODC [1]) | IC50 (with AZI)/IC50 (without AZI) [2] | IC50 (human ODC [1]) | Inhibition of ODC with AZI relative to AZ_WT or to without AZI (in words) ([2]; equimolar AZI, Figure 4) | ODC inhibition ability (in words) (human ODC [1]) | K d,AZ-ODC fold higher than that of AZ_WT (human ODC [3]) | Size distribution of ODC in the presence of AZ (in words) (human ODC [3]; sedimentation velocity, 20°C, Figure 3) |
| --- | --- | --- | --- | --- | --- | --- | --- |
| AZ_87-124: truncated human AZ protein, residues 87-124 | 3.2 | 3.0 | – | – | – | – | – |
| AZ_87-228: truncated human AZ protein, residues 87-228 | 1.1 | – | 170 nM | – | – | – | – |
| AZ_95-169: truncated human AZ protein, lacking β-strand 6, residues 95-169 | 2.3 | – | 370 nM | – | displayed a noteworthy decrease in ODC inhibition ability | – | – |
| AZ_95-176: minimal AZ peptide fully functioning in the binding of ODC and AZI, residues 95-176 | 1.2 | 3.4 | – | – | retained most of the inhibition ability | 7.8 fold | – |
| AZ_95-228: truncated human AZ protein, residues 95-228 | 1.0 | 3.5 | – | – | also similar to that of AZ_WT | 2.1 fold | – |
| AZ_100-135: truncated human AZ protein, residues 100-135 | 5.3 | – | 860 nM | – | notably weaker inhibition ability than AZ_100-228 | – | – |
| AZ_100-176: truncated human AZ protein, residues 100-176 | 2.6 | 3.3 | – | – | had a lower inhibition ability than that of AZ_100-228; also recorded: not as good as that of AZ_95-176 or AZ_100-228 | – | – |
| AZ_100-228: truncated human AZ protein, residues 100-228 | 1.3 | 3.0 | – | – | – | 7.5 fold | – |
| AZ_114-228: truncated human AZ protein, residues 114-228 | 6.0 | – | 970 nM | – | – | – | – |
| AZ_152-228: truncated human AZ protein, residues 152-228 | – | – | – | – | almost no ODC inhibition, even at high concentrations of AZ | – | – |
| AZ_177-228: truncated human AZ protein, residues 177-228 (HKNREDRAALLRTFSFLGFEIVRPGHPLVPKRPDACFMAYTFERESSGEEEE; UniProt P54368 177-228, looked up, fragment) | – | – | – | – | almost no ODC inhibition, even at high concentrations of AZ; also recorded: displays no inhibition of ODC activity | – | – |

Second part, led by results:

| IC50 (AZ peptide)/IC50 (AZ_WT) (human ODC [1]) | IC50 (with AZI)/IC50 (without AZI) [2] | IC50 (human ODC [1]) | Inhibition of ODC with AZI relative to AZ_WT or to without AZI (in words) ([2]; equimolar AZI, Figure 4) | Substance | ODC inhibition ability (in words) (human ODC [1]) | K d,AZ-ODC fold higher than that of AZ_WT (human ODC [3]) | Size distribution of ODC in the presence of AZ (in words) (human ODC [3]; sedimentation velocity, 20°C, Figure 3) |
| --- | --- | --- | --- | --- | --- | --- | --- |
| 4.0 | 3.0 | – | – | AZ_95-124: truncated human AZ protein, residues 95-124 | – | – | – |
| 3.2 | 3.1 | – | – | AZ_95-135: truncated human AZ protein, residues 95-135 | – | – | – |
| 5.0 | – | 820 nM | – | AZ_100-124: truncated human AZ protein, residues 100-124 | notably weaker inhibition ability than AZ_100-228 | – | – |
| 2.3 | – | 370 nM | – | AZ_106-228: truncated human AZ protein, residues 106-228 | weaker inhibition ability than AZ_100-228 | – | – |
| 7.3 | – | 1190 nM | – | AZ_126-228: truncated human AZ protein, residues 126-228 | – | – | – |
| 1.0 | 3.1 | – | lower than in the absence of AZI | Antizyme [AZ_WT] | – | – | disrupted dimeric ODC to form AZ-ODC complexes |
